Earlier results, collected in patent US11759504B2, “PTH compounds with low peak-to-trough ratios” (Ascendis Pharma Bone Diseases A/S, priority 2016, dated 2023).
Where two headings read alike, the source gives them in different places.

Key:
[1] = not given; remark: listed apart in the source

Which results are given for “Natpara: PTH(1-84), approved 2015 for once-daily subcutaneous injection as adjunct to vitamin D and calcium in hypoparathyroidism”?
patients who developed hypercalcemia at one or more measurements during a 24-hour period (human, in vivo): 71%; urinary calcium excretion (over the 24-hour period after injection): did not change; treated participants who achieved normal blood calcium levels on reduced doses of calcium supplements and active forms of vitamin D (pivotal trial, once-daily sc): 42%; osteosarcoma rate ([1]; rat, in vivo): dose dependent increase in osteosarcoma rate

With `CC[C@H](C)[C@H](NC(=O)[C@H](CCC(=O)O)NC(=O)[C@H](CO)NC(=O)[C@@H](NC(=O)[C@@H](N)CO)C(C)C)C(=O)N[C@@H](CCC(N)=O)C(=O)N[C@@H](CC(C)C)C(=O)N[C@@H](CCSC)C(=O)N[C@@H](Cc1cnc[nH]1)C(=O)N[C@@H](CC(N)=O)C(=O)N[C@@H](CC(C)C)C(=O)NCC(=O)N[C@@H](CCCCN)C(=O)N[C@@H](Cc1cnc[nH]1)C(=O)N[C@@H](CC(C)C)C(=O)N[C@@H](CC(N)=O)C(=O)N[C@@H](CO)C(=O)N[C@@H](CCSC)C(=O)N[C@@H](CCC(=O)O)C(=O)N[C@@H](CCCN=C(N)N)C(=O)N[C@H](C(=O)N[C@@H](CCC(=O)O)C(=O)N[C@@H](Cc1c[nH]c2ccccc12)C(=O)N[C@@H](CC(C)C)C(=O)N[C@@H](CCCN=C(N)N)C(=O)N[C@@H](CCCCN)C(=O)N[C@@H](CCCCN)C(=O)N[C@@H](CC(C)C)C(=O)N[C@@H](CCC(N)=O)C(=O)N[C@@H](CC(=O)O)C(=O)N[C@H](C(=O)N[C@@H](Cc1cnc[nH]1)C(=O)N[C@@H](CC(N)=O)C(=O)N[C@@H](Cc1ccccc1)C(=O)O)C(C)C)C(C)C` [Forteo] as the molecule, how does the osteosarcoma rate ([1]; rats, daily injections) read?
The osteosarcoma rate was “dose dependent increase in osteosarcoma rate”.
